Experimental data published in patent EP1215499A1 (priority 1999, dated 2001).
*1 amine or outer side, *2 acyl side, *3 side chain or, on linkers, in order; H or OH if unused. Where a SMILES comes first, the peptide text is derived from it. [ ]: non-standard residue; d: D form. The star is where a group is joined. Sta = CC(C)C[C@H](N)[C@@H](O)CC(=O)O; AMC = Cc1cc(=O)oc2cc(N*)ccc12; Suc = O=C(CCC(=O)[*:2])[*:1]; Isovaleryl = CC(C)CC(=O)*; Boc = CC(C)(C)OC(=O)*

Legend:
Assay type in all cases: biochemical
[1] = target: T1, miniplasmin (Homo sapiens, UniProt P00747); test: biochemical
T1 construct: 38kDa (Kringle 5 + L chain); the 12kDa protein of human miniplasmin includes a kringle 5 that begins with V^441; host or cells: no expression host
T1 sequence (P00747 481-560): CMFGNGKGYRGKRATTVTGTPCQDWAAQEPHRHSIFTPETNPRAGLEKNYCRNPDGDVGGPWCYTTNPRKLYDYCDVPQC
T1 sequence (P00747 581-810): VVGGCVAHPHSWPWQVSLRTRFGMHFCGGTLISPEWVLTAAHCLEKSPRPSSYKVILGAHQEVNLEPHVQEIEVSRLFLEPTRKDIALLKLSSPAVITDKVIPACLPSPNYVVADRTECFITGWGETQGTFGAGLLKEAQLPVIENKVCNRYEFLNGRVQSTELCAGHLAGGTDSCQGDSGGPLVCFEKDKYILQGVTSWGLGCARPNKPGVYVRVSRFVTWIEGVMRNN

[2] = target: T1, miniplasmin; test: Substrate specificity of human miniplasmin (cleavage of fluorescent MCA synthetic substrates); conditions: for Activity (mU/ml): cleavage of the named substrate by human miniplasmin; for cleaving activity of miniplasmin toward the substrate: result in words
Protocol: 2. […] Miniplasmin cut the bond after Arg.
Nor did it toward Bz-Arg-MCA, a synthetic substrate for cathepsin B, which is one of lysosomal enzymes.
The activity of miniplasmin was quantified by defining the enzyme activity that can degrade […] of the synthetic substrate Boc-Glu-Ala-Arg-MCA in 1 minute as 1 unit.

[3] = target: T1, miniplasmin
[4] = target: T1, miniplasmin; test: Substrate specificity of human miniplasmin (cleavage of fluorescent MCA synthetic substrates); conditions: Boc-Gln-Ala-Arg-MCA = 100%

CC(C)C[C@H](NC(=O)N[C@H](C(=O)N[C@@H](CCC(N)=O)C(=O)N[C@@H](C)C=O)[C@@H]1CCNC(=N)N1)C(=O)O [Elastatinal]
activity at 10 µM ([1]; read-out: Relative activity): 69.2%

Cc1cc(=O)oc2cc(NC(=O)[C@H](CCCNC(=N)N)NC(=O)c3ccccc3)ccc12 [Bz-Arg-MCA]
Activity (mU/ml) [2]: 0.0 mU/ml
cleaving activity of miniplasmin toward the substrate [2]: substantially no cleaving activity

Cc1cc(=O)oc2cc(NC(=O)[C@H](CCCCN)NC(=O)[C@H](CCCCN)NC(=O)[C@H](CCC(=O)O)NC(=O)OC(C)(C)C)ccc12 [Boc-Glu-Lys-Lys-MCA] (Boc-Glu-Lys-Lys-{AMC})
Activity (mU/ml) [2]: 50.3 mU/ml
cleaving activity of miniplasmin toward the substrate [2]: highest cleaving activity

Cc1cc(=O)oc2cc(NC(=O)[C@H](CCCNC(=N)N)NC(=O)[C@@H]3CCCN3C(=O)CNC(=O)[C@H](C)NC(=O)OC(C)(C)C)ccc12 [Boc-Ala-Gly-Pro-Arg-MCA] (Boc-AGPR-{AMC})
Activity (mU/ml) [2]: 2.5 mU/ml

Cc1cc(=O)oc2cc(NC(=O)[C@H](CCCNC(=N)N)NC(=O)[C@@H](NC(=O)[C@H](CC(C)C)NC(=O)OC(C)(C)C)[C@@H](C)O)ccc12 [Boc-Leu-Thr-Arg-MCA] (Boc-Leu-Thr-Arg-{AMC})
Activity (mU/ml) [2]: 3.4 mU/ml

CC(C)C[C@H](NP(=O)(O)O[C@@H]1O[C@@H](C)[C@H](O)[C@@H](O)[C@H]1O)C(=O)N[C@@H](Cc1c[nH]c2ccccc12)C(=O)O [Phosphoramidon]
activity at 10 µM ([1]; read-out: Relative activity): 100%

Cc1cc(=O)oc2cc(NC(=O)[C@H](CCCNC(=N)N)NC(=O)[C@H](CCCCN)NC(=O)CNC(=O)OC(C)(C)C)ccc12 [Boc-Gly-Lys-Arg-MCA] (Boc-Gly-Lys-Arg-{AMC})
Activity (mU/ml) [2]: 3.1 mU/ml

N=C(N)c1ccccc1 [Benzamidine]
inhibition mark (circle / double circle) [1]: ○ Benzamidine
activity at 10 µM ([1]; read-out: Relative activity): 67.6%
activity at 1000 µM ([1]; read-out: Relative activity): 22.9%
transformation of F0 into F1 and F2 [3]: substantially prevented

Cc1cc(=O)oc2cc(NC(=O)[C@H](CCCNC(=N)N)NC(=O)[C@H](CCCNC(=N)N)NC(=O)[C@H](CC(C)C)NC(=O)OC(C)(C)C)ccc12 [Boc-Leu-Arg-Arg-MCA] (Boc-Leu-Arg-Arg-{AMC})
Activity (mU/ml) [2]: 3.1 mU/ml

Cc1cc(=O)oc2cc(NC(=O)[C@H](Cc3ccccc3)NC(=O)[C@@H]3CCCN3C(=O)[C@H](C)NC(=O)[C@H](C)NC(=O)CCC(=O)O)ccc12 [Suc-Ala-Ala-Pro-Phe-MCA] (Suc-AAPF-{AMC})
Activity (mU/ml) [2]: 0.0 mU/ml

Cc1cc(=O)oc2cc(NC(=O)[C@H](CCCNC(=N)N)NC(=O)[C@H](C)NC(=O)[C@H](CCC(N)=O)NC(=O)OC(C)(C)C)ccc12 [Boc-Gln-Ala-Arg-MCA] (Boc-Gln-Ala-Arg-{AMC})
Activity (mU/ml) [2]: 32.3 mU/ml

Cc1cc(=O)oc2cc(NC(=O)[C@H](CCCNC(=N)N)NC(=O)[C@H](CCCNC(=N)N)NC(=O)[C@H](CCC(N)=O)NC(=O)OC(C)(C)C)ccc12 [Boc-Gln-Arg-Arg-MCA] (Boc-Gln-Arg-Arg-{AMC})
Activity (mU/ml) [2]: 16.1 mU/ml

Cc1cc(=O)oc2cc(NC(=O)[C@H](CCCNC(=N)N)NC(=O)CNC(=O)[C@H](CCC(N)=O)NC(=O)OC(C)(C)C)ccc12 [Boc-Gln-Gly-Arg-MCA] (Boc-Gln-Gly-Arg-{AMC})
Activity (mU/ml) [2]: 8.1 mU/ml

CC(=O)N[C@@H](CC(C)C)C(=O)N[C@@H](CC(C)C)C(=O)N[C@H](C=O)CCCNC(=N)N [Leupeptin]
inhibition mark (circle / double circle) [1]: ⓞ Leupeptin
activity at 10 µM ([1]; read-out: Relative activity): 18.6%

CC(C)CC(NC(=O)C1OC1C(=O)O)C(=O)NCCCCNC(=N)N (centres unmarked) [E-64]
activity at 10 µM ([1]; read-out: Relative activity): 61.5%

Cc1cc(=O)oc2cc(NC(=O)[C@H](CCCNC(=N)N)NC(=O)[C@@H]3CCCN3C(=O)[C@@H](NC(=O)OC(C)(C)C)C(C)C)ccc12 [Boc-Val-Pro-Arg-MCA] (Boc-Val-Pro-Arg-{AMC})
Activity (mU/ml) [2]: 5.0 mU/ml

CC(C)C[C@H](NC(=O)[C@@H](NC(=O)N[C@@H](Cc1ccccc1)C(=O)O)C1CCN=C(N)N1)C(=O)N[C@H](C=O)Cc1ccccc1 (some centres unmarked) [Cymostatin]
activity at 10 µM ([1]; read-out: Relative activity): 100%

Cc1cc(=O)oc2cc(NC(=O)[C@H](Cc3ccc(O)cc3)NC(=O)[C@@H](NC(=O)[C@H](CC(C)C)NC(=O)[C@H](CC(C)C)NC(=O)CCC(=O)O)C(C)C)ccc12 [Suc-Leu-Leu-Val-Tyr-MCA] (Suc-LLVY-{AMC})
Activity (mU/ml) [2]: 0.0 mU/ml

Boc-Ile-Gln-Gly-Arg-MCA (Boc-IQGR-{AMC})
Activity (mU/ml) [2]: 1.6 mU/ml
cleaving activity of miniplasmin toward the substrate [2]: substantially no cleaving activity
% (Activity as a percentage of that with Boc-Gln-Ala-Arg-MCA) [4]: 4.8%

Cc1cc(=O)oc2cc(NC(=O)[C@H](CCCNC(=N)N)NC(=O)[C@H](Cc3ccccc3)NC(=O)[C@@H]3CCCN3)ccc12 [Pro-Phe-Arg-MCA] (H-Pro-Phe-Arg-{AMC})
Activity (mU/ml) [2]: 5.0 mU/ml

Cc1cc(=O)oc2cc(NC(=O)[C@H](CCCNC(=N)N)NC(=O)[C@H](CO)NC(=O)[C@H](Cc3ccccc3)NC(=O)OC(C)(C)C)ccc12 [Boc-Phe-Ser-Arg-MCA] (Boc-Phe-Ser-Arg-{AMC})
Activity (mU/ml) [2]: 5.0 mU/ml

Cc1cc(=O)oc2cc(NC(=O)[C@H](CCCCN)NC(=O)[C@H](CC(C)C)NC(=O)[C@@H](NC(=O)OC(C)(C)C)C(C)C)ccc12 [Boc-Val-Leu-Lys-MCA] (Boc-Val-Leu-Lys-{AMC})
Activity (mU/ml) [2]: 17.7 mU/ml
% (Activity as a percentage of that with Boc-Gln-Ala-Arg-MCA) [4]: 54.8%

CC(C)CC(=O)N[C@H](C(=O)N[C@H](C(=O)N[C@@H](CC(C)C)[C@@H](O)CC(=O)N[C@@H](C)C(=O)N[C@@H](CC(C)C)[C@@H](O)CC(=O)O)C(C)C)C(C)C [Pepstatin A] (Isovaleryl-VV[Sta]A[Sta]-OH)
activity at 10 µM ([1]; read-out: Relative activity): 64%

O=S(=O)(F)Cc1ccccc1 [Phenylmethylsulfonyl fluoride]
inhibition mark (circle / double circle) [1]: ○ Phenylmethylsulfonyl fluoride
Relative activity ([1]; 1000 µM): 95.1%
Relative activity ([1]; 10000 µM): 29.5%
